US20040014142A1, “Differential diagnosis of neurodegeneration” (INNOGENETICS N.V., priority 1998, published 2004)

What was measured:
neuromodulin = assay: CSF neuromodulin level after chemotherapy of children (sandwich ELISA NM2/NM4); assay type: in vivo, human; settings: child with manifest neurotoxicity and diplegia after MTX; exceeded highest standard
Protocol: Neuromodulin was also measured with a sandwich-type ELISA, using two epitope-specific monoclonal antibodies (NM2, NM4; Oestreicher et al., 1994). NM2 was selected as capturing antibody, biotinylated NM4 as detector antibody. Recombinant neuromodulin was used as standard.
(§1) Lumbar punctures were performed for routine analysis either at baseline for diagnostic work-up or just prior to the IT administration of chemotherapy. Five ml of CSF was collected in different polypropylene tubes. One sample was centrifuged immediately at 1500 rpm for 2 minutes to eliminate cells and other insoluble material. The supernatant was stored at −70° C. for subsequent analysis. The number of freeze/thaw cycles was restricted to a minimum. Routine CSF measurement included cytology, protein concentration, glucose, etc.

tau = settings: in vivo
Protocol: Total tau was measured with the tau antigen test, using AT120 as capturing antibody and biotinylated HT7-BT2 as detector antibody (INNOTEST hTau antigen, Innogenetics, Gent, Belgium).
All patients underwent a thoroughly clinical evaluation at the time of diagnosis. Parental informed consent was available.
as §1

mice = assay: Titer after immunization of mice with α-synuclein (coating ELISA); assay type: in vivo
Protocol: Alpha-synuclein was purified from 3 liters of induced E. coli cultures resulting in purification of more than 10 mg α-synuclein (more than 90% pure estimated from coumassie and silverstained gels). The protein was injected into mice following several immunization schemes (Table 3). After 4 injections the titer to α-synuclein was evaluated in a coating ELISA.

[1] = animal 309 (m2), 1°: 50 μg α-synuclein, 2°: 5 μg peptide (IGP1463)

CN(Cc1cnc2nc(N)nc(N)c2n1)c1ccc(C(=O)N[C@@H](CCC(=O)O)C(=O)O)cc1 [MTX, methotrexate]
CSF neuromodulin level (neuromodulin): > 8000 pg/mL
CSF tau level (tau): > 1500 pg/mL

α-synuclein
Estimated titer in direct coating (mice; animal 308 (m4), 50 μg protein): 250000
Estimated titer in direct coating (mice; [1]): 512000
titer on peptide (mice; [1]): (titer of 2000 on peptide)
Estimated titer in direct coating (mice; animal 309 (m4), 1°: 50 μg α-synuclein, 2°: 5 μg peptide (IGP1463)): 128000
Estimated titer in direct coating (mice; animal 312 (m2), 5 μg α-synuclein protein): 100000
Estimated titer in direct coating (mice; animal 312 (m3), 5 μg α-synuclein protein): >512000
Estimated titer in direct coating (mice; animal 313 (m2), 1°: 50 μg protein, 2°: 5 μg protein): 2500000
titer to α-synuclein (serum dilution resulting in OD value twice the background) (mice; six mice, after 4 injections): above 100000
